Entries after “also recorded” stand apart in the source; their conditions may differ. Counter-ions that a name gives are not always drawn. Like-named read-outs stand apart in the source and are kept apart here.
Columns and labels:
[1] = test system: SARS-CoV-2 spike pseudotyped particles (Delta variant B.1.617.2) entry into Calu-3 cells; assay: microbe, parasite or virus in culture; assay type: cell-based; details: for inhibition of pseudotyped particle entry: variant not stated; for Emax: Severe acute respiratory syndrome coronavirus 2, Calu-3, read-out: SARS-CoV-2 PP (Delta) Max Response; for AC50: 48 h, N/D = Not Detected, read-out: SARS-CoV-2 PP (Delta) AC50; for SARS-CoV-2 PP (Delta) Max Response: PP wells 0%, bald PP −100%
[2] = test system: SARS-CoV-2 spike pseudotyped particles (WA1 + D614G) entry into Calu-3 cells; assay type: cell-based; details: for AC50: read-out: SARS-CoV-2 PP (WA1 + D614G) AC50
[3] = Severe acute respiratory syndrome coronavirus 2, Calu-3 cells
[4] = Calu-3 cells, read-out: IC50 Delta pseudotyped particle entry
[5] = Severe acute respiratory syndrome coronavirus 2, Calu-3, read-out: IC50 Delta pseudotyped particle entry, Calu-3 cells
[6] = Severe acute respiratory syndrome coronavirus 2, Calu-3, variant not given, matches Delta values, read-out: IC50 blocking of entry into Calu-3 cells using pseudotyped particles with SARS-CoV-2 spike protein

Row | Molecule | Emax [1] [%] | AC50 [1, 3] [µM] | SARS-CoV-2 PP (WA1 + D614G) Max Response [2] [%] | AC50 [2] [µM] | further results
1 | O=c1ccc2ccc(O)cc2o1 [7-Hydroxycoumarin] |  |  |  |  | inhibition of pseudotyped particle entry ([1]; Calu-3 cells): lack of activity; also recorded: nor any inhibition of pseudotyped particle entry
2 | CC(C)C[C@H](NC(=O)[C@H](Cc1ccccc1)NC(=O)c1cnccn1)B(O)O [Bortezomib] | -100 | < 0.05 | -100 | < 0.05 | IC50 ([1]; Severe acute respiratory syndrome coronavirus 2, Calu-3, Calu-3 cells, apparent, due to cytotoxicity, read-out: IC50 inhibition of viral entry (variant not stated)): < 0.05 µM
3 | CN(C)C(=O)COC(=O)Cc1ccc(OC(=O)c2ccc(NC(=N)N)cc2)cc1 [Camostat] | -92 | 0.059 | -95 | 0.05 | IC50 [1, 4]: 0.059 µM; IC50 [1, 5]: 0.0588 µM; IC50 ([2]; read-out: IC50 WA1 + D614G pseudotyped particle entry): 0.05 µM
4 | NC[C@H]1CC[C@H](C(=O)Oc2ccc(CCC(=O)O)cc2)CC1 [Cetraxate HCl] | 30 | 23.3 |  |  | 
5 | N=C(N)c1cccc(CC(NS(=O)(=O)c2cccc(-c3ccc(Cl)cc3Cl)c2)C(=O)N2CCC(CCN)CC2)c1 (centres unmarked) [Cmpd 92 (Meyer)] | 92 | 3.98 | -70 | 2.05 | IC50 [1, 6]: 4 µM
6 | N=C(N)c1cccc(CC(NS(=O)(=O)c2cccc(-c3ccc(Cl)cc3Cl)c2)C(=O)N2CCC(NC(=O)NC3CCCCC3)CC2)c1 (centres unmarked) [Cmpd 114 (Meyer)] | 99 | 15.3 | -88 | 5.35 | IC50 [1, 6]: 15 µM
7 | COC(=O)N[C@H](C(=O)N1CCC[C@H]1c1nc(-c2ccc(-c3ccc(-c4c[nH]c([C@@H]5CCCN5C(=O)[C@@H](NC(=O)OC)C(C)C)n4)cc3)cc2)c[nH]1)C(C)C [Daclatasvir dihydrochloride] | -100 | 32.9 | -100 | 39 | 
8 | CCOC(=O)c1ccc(OC(=O)CCCCCNC(=N)N)cc1 [Gabexate mesilate] |  |  |  |  | inhibition of pseudotyped particle entry ([1]; Calu-3 cells): inactive
9 | N=C(N)c1ccc2cc(OC(=O)c3ccc(N=C(N)N)cc3)ccc2c1 [Nafamostat mesilate] | -100 | 0.0014 | -100 |  | IC50 [1, 4]: 0.0014 µM; IC50 [1, 5]: 0.00142 µM
10 | COC(=O)[C@H](Cc1cccc(C(=N)N)c1)[C@@H](C)NC(=O)c1ccc(-c2cc[n+]([O-])cc2)cc1 [Otamixaban] | 54 | 18 | -50 | 20 | 
11 | N=C(N)c1ccc2nc(-c3cc(CC(=O)N[C@@H](CC(=O)O)C(=O)O)cc(-c4cc(S(N)(=O)=O)ccc4O)c3O)[nH]c2c1 [PCI-27483] | -66 | 15.8 | -66 | 16.5 | 
12 | AGN194310 |  |  | -87 | 22 | AC50 ([1]; Calu-3 cells): 38.4 µM; SARS-CoV-2 PP (Delta) Max Response ([1]; Calu-3 cells): -86%
13 | Dibromopropamidine Dihydrochloride |  |  | -44 | 19.5 | AC50 ([1]; Calu-3 cells): 19.2 µM; SARS-CoV-2 PP (Delta) Max Response ([1]; Calu-3 cells): -49%
14 | G-007-LK |  |  | -73 | 0.5 | AC50 ([1]; Calu-3 cells): 1 µM; SARS-CoV-2 PP (Delta) Max Response ([1]; Calu-3 cells): -67%
15 | Marizomib / Salinosporamide A |  |  | -100 | < 0.05 | AC50 ([1]; Calu-3 cells): < 0.05 µM; SARS-CoV-2 PP (Delta) Max Response ([1]; Calu-3 cells): -100%

— doi:10.1101/2022.02.04.479134, “A Suite of TMPRSS2 Assays for Screening Drug Repurposing Candidates as Potential Treatments of COVID-19” (bioRxiv, 2022)
